Measured values reported in patent US9260500B2, “Peptide and use thereof” (Takeda Pharmaceutical Company Limited, priority 2009, dated 2016).
Non-standard residues stand in square brackets, D forms with d. *: point of attachment. X4 = ((1S)-1-Carboxy-3-methylbutyl)carbamoyl, CC(C)C[C@H](NC(=O)*)C(=O)O; X6 = ((1S)-1-carboxy-2-hydroxyethyl)carbamoyl, O=C(O)[C@H](CO)NC(=O)*; ((1S)-1-Carboxyethyl)carbamoyl = C[C@H](NC(=O)*)C(=O)O; 4Pal = N[C@@H](Cc1ccncc1)C(=O)O; Cha = N[C@@H](CC1CCCCC1)C(=O)O; Aib = CC(C)(N)C(=O)O

Experiments:
[1] = system: male C57BL/6J mouse; assay: 3-Day Continuous Subcutaneous Administration Test-2 (food intake suppressing activity); format: in vivo; conditions: 0.03 mg/kg/day, subcutaneous Alzet pump, food consumption as of 2 days after start; versus solvent (50% DMSO) control group
Procedure: (5) Test Method: 3-Day Continuous Subcutaneous Administration Test-2
The food intake suppressing activity of the compound of the present invention was examined by the following method.
The test compound was dissolved in a solvent (50% DMSO) so that sustained release would occur at 0.03 mg/kg/day, and the solution was filled in the Alzet Pump (DURECT Corporation, model: 1003D). After the filling, the pump was immersed in physiological saline for priming, and then used. The pump was embedded by the following method. Each male C57BL/6J mouse at 9-10 weeks of age (25° C., allowed to take food and water ad libitum; 12-hour bright-12-hour dark cycle) was anesthetized; the skin in the upper back thereof was incised, and the above-mentioned pump was embedded subcutaneously; the incision was sutured. After weighing, this mouse was returned to the rearing cage (reared alone), and given previously weighed food; food consumption as of 2 days after the start of administration was measured. The food consumption was calculated by subtracting the amount of remaining food from the weight of the food given on the day of the start of administration. From the food consumption obtained, the food intake suppression rate (%) of each test compound was calculated using the following the formula.
A group receiving administration of the aforementioned solvent alone was the control group.
Food intake suppression rate (%): (Food consumption for control group−food consumption for test compound administration group)/food consumption for control group×100

[2] = target: T1, human Y2 receptor (Homo sapiens, UniProt P49146); assay: Receptor Binding Assay (RBA) for Human Y2, [125I]-PYY displacement on hY2R/CHO membrane fraction; conditions: IC50 of test compound/IC50 of PYY(3-36) (PYY(3-36) taken as 1)
T1 construct: expressed in transfected cells; membrane fraction
T1 sequence (P49146 1-381): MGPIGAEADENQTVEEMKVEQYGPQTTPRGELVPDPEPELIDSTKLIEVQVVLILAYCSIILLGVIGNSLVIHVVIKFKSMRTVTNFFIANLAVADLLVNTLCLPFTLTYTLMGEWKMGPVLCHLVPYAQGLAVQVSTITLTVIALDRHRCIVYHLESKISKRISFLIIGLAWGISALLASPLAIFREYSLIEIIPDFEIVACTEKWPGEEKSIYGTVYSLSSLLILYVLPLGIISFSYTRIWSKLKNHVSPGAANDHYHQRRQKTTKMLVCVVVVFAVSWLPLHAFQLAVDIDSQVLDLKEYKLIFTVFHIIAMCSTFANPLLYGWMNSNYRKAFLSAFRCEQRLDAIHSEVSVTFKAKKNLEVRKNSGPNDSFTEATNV
How it was run: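 hY2R stably expressed in CHO/dhfr− cells; membrane fraction prepared from cells disrupted in 10 mM NaHCO3, 5 mM EDTA buffer with protease inhibitors. Binding read as displacement of [125I]-PYY.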

[3] = target: T1, human Y2 receptor; assay: Human Y2 Receptor G Protein Binding Assay (GBA), [35S]GTPγS; format: biochemical; conditions: EC50 of test compound/EC50 of PYY(3-36) (PYY3-36 taken as 1), hY2R/CHO membrane fraction
How it was run: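 Agonism measured as [35S]GTPγS binding, read by GF/C filtration and scintillation counting after 120 min at room temperature, using human Y2 membranes at 1 μg protein/mL in pH 7.4 Tris/MgCl2/NaCl/GDP buffer. Compound serially diluted 100 μM–1 nM; EC50 normalized to PYY(3-36) (ratio = compound/PYY).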

[4] = system: male C57EL/6J mice; assay: 3-Days Continuous Subcutaneous Administration Test-1 (food intake suppressing activity); format: in vivo, mouse; conditions: 0.03 mg/kg/day, subcutaneous Alzet pump, food consumption over 3 days; relative to food intake suppression rate for PYY(3-36) (1 mg/kg/day) taken as 100%
How it was run: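 Male […] mice, 12-13 weeks, received compound at 0.03 mg/kg/day by subcutaneous osmotic pump (50% DMSO vehicle), housed singly with free food access. Food consumed over 3 days measured; suppression expressed relative to PYY(3-36) (1 mg/kg/day) set as 100%.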

Row | Substance | food intake suppression rate (%) [1] [%] | other results
1 | 4-Imidazolecarbonyl-[Aib24,31, Iva25, Pya(4)26, Cha27,36, Leu(Me)28, Lys(Ac)30]-PYY(23-36) [compound No. 368] | 34.9 | –
2 | 4-Imidazolecarbonyl-[D-Hyp24, Iva25, Pya(4)26, Cha27,36, Iva28, Lys30, D-Iva31]-PYY(23-36) [compound No. 372] | 27.2 | –
3 | 4-Imidazolecarbonyl-[D-Hyp24, Iva25, Pya(4)26, Cha27,36, Leu(Me)28, Har30, Aib31]-PYY(23-36) [compound No. 367] | 24.0 | –
4 | 4-Imidazolecarbonyl-[D-Hyp24, Iva25, Pya(4)26, Cha27,36, Leu(Me)28, Lys(Ac)30, Aib31]-PYY(23-36) [compound No. 362] | 54.2 | –
5 | 4-Imidazolecarbonyl-[D-Hyp24, Iva25, Pya(4)26, Cha27,36, Leu(Me)28, Lys(Ac)30, D-Iva31]-PYY(23-36) [compound No. 369] | 47.8 | –
6 | 4-Imidazolecarbonyl-[D-Hyp24, Iva25, Pya(4)26, Cha27, Leu(Me)28, Lys30, Aib31, Phe(2,6-Me2)36]-PYY(23-36) [compound No. 360] | 36.7 | –
7 | 4-Imidazolecarbonyl-[D-Hyp24, Pya(4)26, Cha27,36, Iva28, Lys(Ac)30, D-Iva31]-PYY(23-36) [compound No. 374] | 22.6 | –
8 | 4-Imidazolecarbonyl-[D-Hyp24, Pya(4)26, Cha27,36, Leu(Me)28, Lys30, Aib31]-PYY(23-36) [compound No. 370] | 17.9 | –
9 | 4-Imidazolecarbonyl-[D-Pro24, Iva25, Pya(4)26, Cha27,36, Leu(Me)28, Lys(Ac)30, Aib31]-PYY(23-36) [compound No. 365] | 37.8 | –
10 | 4-Imidazolecarbonyl-[D-Pro24, Pya(4)26, Cha27,36, Iva28, Lys30, Aib31]-PYY(23-36) [compound No. 366] | 32.9 | –
11 | 4-Imidazolecarbonyl-[D-Pro24, Pya(4)26, Cha27,36, Iva28, Lys(Ac)30, Aib31]-PYY(23-36) [compound No. 371] | 18.6 | –
12 | Ac-[Glu23, D-Pro24, Iva25, Pya(4)26, Cha27,36, Leu(Me)28, Lys30, Aib31]-PYY(23-36) [compound No. 363] | 27.7 | –
13 | Carbamoyl-[D-Hyp24, Iva25, Pya(4)26, Cha27,36, Leu(Me)28, Lys30, Aib31]-PYY(23-36) [compound No. 364] | 37.3 | –
14 | Thp(4)-CH2NHCO-[D-Hyp24, Iva25, Pya(4)26, Cha27,36, Leu(Me)28, Lys30, Aib31]-PYY(23-36) [compound No. 359] | 43.4 | –
15 | Thp(4)-CO-[D-Hyp24, Iva25, Pya(4)26, Cha27,36, Leu(Me)28, Lys30, Aib31]-PYY(23-36) [compound No. 361] | 23.3 | –
16 | Thp(4)-NHCO-[D-Hyp24, Iva25, Pya(4)26, Cha27,36, Leu(Me)28, Lys30, Aib31]-PYY(23-36) [compound No. 358] | 62.5 | –
17 | [(1S)-1-Carboxy-3-methylbutyl]carbamoyl-[Gln23, D-Pro24, Pya(4)26, Cha27,36, Aib28,31, Lys30]-PYY(23-36) (X4-Q[dP]R[4Pal][Cha][Aib]NK[Aib]TRQR[Cha]-NH2; SMILES CC(C)C[C@H](NC(=O)N[C@@H](CCC(N)=O)C(=O)N1CCC[C@@H]1C(=O)N[C@@H](CCCNC(=N)N)C(=O)N[C@@H](Cc1ccncc1)C(=O)N[C@@H](CC1CCCCC1)C(=O)NC(C)(C)C(=O)N[C@@H](CC(N)=O)C(=O)N[C@@H](CCCCN)C(=O)NC(C)(C)C(=O)N[C@H](C(=O)N[C@@H](CCCNC(=N)N)C(=O)N[C@@H](CCC(N)=O)C(=O)N[C@@H](CCCNC(=N)N)C(=O)N[C@@H](CC1CCCCC1)C(N)=O)[C@@H](C)O)C(=O)O) [compound No. 284] | – | RBA IC50 Ratio [2]: 0.93; GBA EC50 Ratio [3]: 1.3; food intake suppression rate (%) [4]: 21%
18 | [(1S)-1-Carboxy-3-methylbutyl]carbamoyl-[Glu23, D-Pro24, Pya(4)26, Cha27,36, Aib28,31, Lys30]-PYY(23-36) (X4-E[dP]R[4Pal][Cha][Aib]NK[Aib]TRQR[Cha]-NH2; SMILES CC(C)C[C@H](NC(=O)N[C@@H](CCC(=O)O)C(=O)N1CCC[C@@H]1C(=O)N[C@@H](CCCNC(=N)N)C(=O)N[C@@H](Cc1ccncc1)C(=O)N[C@@H](CC1CCCCC1)C(=O)NC(C)(C)C(=O)N[C@@H](CC(N)=O)C(=O)N[C@@H](CCCCN)C(=O)NC(C)(C)C(=O)N[C@H](C(=O)N[C@@H](CCCNC(=N)N)C(=O)N[C@@H](CCC(N)=O)C(=O)N[C@@H](CCCNC(=N)N)C(=O)N[C@@H](CC1CCCCC1)C(N)=O)[C@@H](C)O)C(=O)O) [compound No. 283] | – | RBA IC50 Ratio [2]: 2.2; GBA EC50 Ratio [3]: 2.5; food intake suppression rate (%) [4]: 18%
19 | [(1S)-1-Carboxyethyl]carbamoyl-[D-Pro24, Pya(4)26, Cha27,36, Aib28,31, Lys30]-PYY(23-36) ({((1S)-1-Carboxyethyl)carbamoyl}-S[dP]R[4Pal][Cha][Aib]NK[Aib]TRQR[Cha]-NH2; SMILES C[C@H](NC(=O)N[C@@H](CO)C(=O)N1CCC[C@@H]1C(=O)N[C@@H](CCCNC(=N)N)C(=O)N[C@@H](Cc1ccncc1)C(=O)N[C@@H](CC1CCCCC1)C(=O)NC(C)(C)C(=O)N[C@@H](CC(N)=O)C(=O)N[C@@H](CCCCN)C(=O)NC(C)(C)C(=O)N[C@H](C(=O)N[C@@H](CCCNC(=N)N)C(=O)N[C@@H](CCC(N)=O)C(=O)N[C@@H](CCCNC(=N)N)C(=O)N[C@@H](CC1CCCCC1)C(N)=O)[C@@H](C)O)C(=O)O) [compound No. 286] | – | RBA IC50 Ratio [2]: 0.78; GBA EC50 Ratio [3]: 0.94; food intake suppression rate (%) [4]: 37%
20 | [(1S)-1-carboxy-2-hydroxyethyl]carbamoyl-[D-Pro24, Pya(4)26, Cha27,36, Aib28,31, Lys30]-PYY(23-36) (X6-S[dP]R[4Pal][Cha][Aib]NK[Aib]TRQR[Cha]-NH2; SMILES C[C@@H](O)[C@H](NC(=O)C(C)(C)NC(=O)[C@H](CCCCN)NC(=O)[C@H](CC(N)=O)NC(=O)C(C)(C)NC(=O)[C@H](CC1CCCCC1)NC(=O)[C@H](Cc1ccncc1)NC(=O)[C@H](CCCNC(=N)N)NC(=O)[C@H]1CCCN1C(=O)[C@H](CO)NC(=O)N[C@@H](CO)C(=O)O)C(=O)N[C@@H](CCCNC(=N)N)C(=O)N[C@@H](CCC(N)=O)C(=O)N[C@@H](CCCNC(=N)N)C(=O)N[C@@H](CC1CCCCC1)C(N)=O) [compound No. 288] | – | RBA IC50 Ratio [2]: 0.52; GBA EC50 Ratio [3]: 1.3; food intake suppression rate (%) [4]: 28%
21 | [D-Hyp24, Iva25, Pya(4)26, Cha27,36, Leu(Me)28, Lys(Ac)30, Aib31]-PYY(23-36) [compound No. 373] | 17.5 | –
